target: T1, active p38 alpha enzyme (Upstate Biotechnology) (Homo sapiens, UniProt Q16539); assay: p38α biochemical assay (ATP turnover, luminescent detection, Cambrex PKlight); conditions: p38α biochemical assay, Table 1 Biological Activity
T1 construct: purchased Upstate Biotechnology
Summary of the method: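 p38α + MapkapK2 (whole protein substrate) + 1.4 uM ATP final; Tris/MOPS buffer with MgCl2, CaCl2, EGTA, EDTA, glycerol, β-ME, BSA; 2 h at 30C; luminescent detection of remaining ATP.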

T1 sequence (Q16539 whole entry): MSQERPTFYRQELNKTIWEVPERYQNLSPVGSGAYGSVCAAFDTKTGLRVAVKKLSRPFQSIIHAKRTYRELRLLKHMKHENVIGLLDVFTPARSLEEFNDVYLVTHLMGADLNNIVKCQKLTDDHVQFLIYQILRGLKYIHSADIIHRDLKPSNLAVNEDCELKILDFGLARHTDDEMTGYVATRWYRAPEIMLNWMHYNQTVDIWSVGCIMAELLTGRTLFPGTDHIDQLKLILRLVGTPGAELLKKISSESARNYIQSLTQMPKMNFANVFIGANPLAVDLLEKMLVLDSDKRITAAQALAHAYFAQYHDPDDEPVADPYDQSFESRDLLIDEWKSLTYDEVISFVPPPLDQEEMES

Compound	IC50 [nM]
COc1cc(Cl)ccc1C(=O)NCc1nc(-c2ccc(F)cc2)c(-c2nc(C(=O)NC(C)C)cs2)o1 [Example 239]	> 1000
COc1cc(OC)c(C(=O)N2CCN(Cc3nc(-c4ccc(F)cc4)c(-c4nc(C(=O)NC(C)C)cs4)o3)CC2)cc1OC [Example 521]	≤ 1000
CC(C)NC(=O)c1csc(-c2oc(CNC(=O)C3CN(C(=O)OC(C)(C)C)CCN3)nc2-c2ccc(F)cc2)n1 (stereo not drawn) [Example 315]	≤ 1000
CC(C)NC(=O)c1csc(-c2oc(CNC(=O)c3ccc4cc(O)ccc4c3)nc2-c2ccc(F)cc2)n1 [Example 242]	≤ 1000
CC(C)NC(=O)c1csc(-c2c(-c3ccc(F)cc3)noc2CNC(=O)c2ccncc2Cl)n1 [Example 631]	≤ 1000
CC(C)NC(=O)c1csc(-c2oc(CNC(=O)c3ccnc(Cl)c3)nc2-c2ccc(F)cc2)n1 [Example 154]	> 1000
CC(C)NC(=O)c1csc(-c2oc(CNC(=O)c3cc(F)cc(F)c3)nc2-c2ccc(F)cc2)n1 [Example 160]	> 1000
CC(C)NC(=O)c1csc(-c2oc(CN3CCN(C(=O)CCc4cccc(Br)c4)CC3)nc2-c2ccc(F)cc2)n1 [Example 547]	> 1000
CC(C)NC(=O)c1csc(-c2oc(CN3CCN(C(=O)c4ccc(OC(C)C)cc4)CC3)nc2-c2ccc(F)cc2)n1 [Example 456]	≤ 1000
CC(C)NC(=O)c1csc(-c2oc(CN3CCN(C(=O)c4c(F)cccc4F)CC3)nc2-c2ccc(F)cc2)n1 [Example 394]	> 1000
COc1ccc(Cl)cc1C(=O)NCc1onc(-c2ccc(F)cc2)c1-c1nc(C(=O)NC(C)C)cs1 [Example 713]	> 1000
Cc1cc(C(=O)NCc2onc(-c3ccc(F)cc3)c2-c2nc(C(=O)NC(C)C)cs2)ccc1Br [Example 767]	> 1000
CC(C)NC(=O)c1csc(-c2oc(CN3CCN(C(=O)c4cccc(Oc5ccccc5)c4)CC3)nc2-c2ccc(F)cc2)n1 [Example 525]	> 1000
CC(C)NC(=O)c1csc(-c2oc(CN3CCN(C(=O)C(F)(F)F)CC3)nc2-c2ccc(F)cc2)n1 [Example 345]	≤ 1000
CC(C)NC(=O)c1csc(-c2c(-c3ccc(F)cc3)noc2CNC(=O)/C=C/c2ccccc2)n1 [Example 606]	> 1000
Cc1nc(-c2ccc(F)cc2)c(-c2nc(C(=O)NCc3ccccn3)cs2)s1 [Example 56, 4′-(4-Fluoro-phenyl)-2′-methyl-|2,5′|bithiazolyl-4-carboxylic acid (pyridin-2-ylmethyl)-amide]	≤ 1000
COc1ccc(C(=O)NCc2nc(-c3ccc(F)cc3)c(-c3nc(C(=O)NC(C)C)cs3)o2)cc1 [Example 141]	> 1000
Cc1ccc(C(=O)N2CCN(Cc3nc(-c4ccc(F)cc4)c(-c4nc(C(=O)NC(C)C)cs4)o3)CC2)cc1Br [Example 530]	> 1000
Cc1cccc(C(=O)NCc2onc(-c3ccc(F)cc3)c2-c2nc(C(=O)NC(C)C)cs2)c1[N+](=O)[O-] [Example 696]	> 1000
CC(C)NC(=O)c1csc(-c2c(-c3ccc(F)cc3)noc2CNC(=O)C(Cl)(Cl)Cl)n1 [Example 640]	> 1000
COc1cc(OC)c(C(=O)NCc2nc(-c3ccc(F)cc3)c(-c3nc(C(=O)NC(C)C)cs3)o2)c(OC)c1 [Example 283]	≤ 1000
CC(C)Cc1ccc(C(C)C(=O)NCc2onc(-c3ccc(F)cc3)c2-c2nc(C(=O)NC(C)C)cs2)cc1 (stereo not drawn) [Example 755]	> 1000
CC(C)NC(=O)c1csc(-c2oc(CNC(=O)c3cc4ccccc4s3)nc2-c2ccc(F)cc2)n1 [Example 207]	≤ 1000
Cc1cc(C(=O)NCc2nc(-c3ccc(F)cc3)c(-c3nc(C(=O)NC(C)C)cs3)o2)ccc1Br [Example 292]	> 1000
Cc1ccc(O)c(C(=O)N2CCN(Cc3nc(-c4ccc(F)cc4)c(-c4nc(C(=O)NC(C)C)cs4)o3)CC2)c1 [Example 382]	≤ 1000
CC(C)NC(=O)c1csc(-c2oc(CNC(=O)c3ccccc3C(=O)c3ccc(F)cc3)nc2-c2ccc(F)cc2)n1 [Example 323]	> 1000
COc1cccc(OC)c1C(=O)N1CCN(Cc2nc(-c3ccc(F)cc3)c(-c3nc(C(=O)NC(C)C)cs3)o2)CC1 [Example 463]	≤ 1000

same assay, conditions: p38α kinase; Table 1 Biological Activity

Compound	IC50 [nM]
Cc1nc(-c2ccc(F)cc2)c(-c2nc(C(=O)NC(C)C)cs2)[nH]1 [Example 2158, 2-|5-(4-Fluoro-phenyl)-2-methyl-3H-imidazol-4-yl|-thiazole-4-carboxylic acid isopropylamide]	≤ 1000
CC(C)NC(=O)c1csc(-c2c(-c3ccc(F)cc3)noc2CN2CCN(c3ccc(Cl)c(Cl)c3)CC2)n1 [Example 1624]	> 1000
CC(C)NC(=O)c1csc(-c2c(-c3ccc(F)cc3)n[nH]c2C2CCN(C(=O)C3CCCN3C(=O)OCc3ccccc3)CC2)n1 (stereo not drawn) [Example 1041]	> 1000
CC(C)NC(=O)c1csc(-c2c(-c3ccc(F)cc3)noc2CN(CCO)CCO)n1 [Example 1530]	> 1000
CC(C)NC(=O)c1csc(-c2oc(CN3CCN(c4cccc(Cl)c4)CC3)nc2-c2ccc(F)cc2)n1 [Example 1273]	> 1000
COc1cccc(CNCc2onc(-c3ccc(F)cc3)c2-c2nc(C(=O)NCC(C)C)cs2)c1 [Example 1457]	> 1000
Cc1nc(-c2ccc(F)cc2)c(-c2nc(C(=O)NCC3CCCCC3)cs2)s1 [Example 1745]	≤ 1000
CCCOc1ccc(C(=O)N2CCC(c3[nH]nc(-c4ccc(F)cc4)c3-c3nc(C(=O)NC(C)C)cs3)CC2)cc1 [Example 932]	> 1000
Cc1ccc(CNC(=O)c2csc(-c3sc(C)nc3-c3ccc(F)cc3)n2)cc1 [Example 1756]	≤ 1000
Cc1ccc(C(=O)CCC(=O)N2CCC(c3[nH]nc(-c4ccc(F)cc4)c3-c3nc(C(=O)NC(C)C)cs3)CC2)cc1 [Example 970]	> 1000
CC(C)NC(=O)c1csc(-c2c(-c3ccc(F)cc3)n[nH]c2C2CCN(C(=O)/C=C/c3cccc(O)c3)CC2)n1 [Example 882]	> 1000
O=C(NCc1ccc(Cl)c(Cl)c1)c1csc(-c2c(-c3ccc(F)cc3)n[nH]c2C2CCNCC2)n1 [Example 2145]	> 1000
CC(C)NC(=O)c1csc(-c2c(-c3ccc(F)cc3)n[nH]c2C2CCN(C(=O)c3cc(Cl)ccc3Cl)CC2)n1 [Example 967]	> 1000
CC(C)NC(=O)c1csc(-c2oc(CNc3cc(C(F)(F)F)ccc3C(F)(F)F)nc2-c2ccc(F)cc2)n1 [Example 1372]	> 1000
CC(C)NC(=O)c1csc(-c2oc(CN(C)Cc3cccc4ccccc34)nc2-c2ccc(F)cc2)n1 [Example 1283]	> 1000
Cc1nc(-c2ccc(F)cc2)c(-c2nc(C(=O)NCc3ccncc3)cs2)s1 [Example 1742]	≤ 1000
COc1ccccc1CC(=O)N1CCC(c2[nH]nc(-c3ccc(F)cc3)c2-c2nc(C(=O)NC(C)C)cs2)CC1 [Example 896]	> 1000
CCCNC(=O)c1csc(-c2c(-c3ccc(F)cc3)n[nH]c2C2CCNCC2)n1 [Example 2034]	> 1000
Cc1cc(C)cc(C(=O)N2CCC(c3[nH]nc(-c4ccc(F)cc4)c3-c3nc(C(=O)NC(C)C)cs3)CC2)c1 [Example 852]	> 1000
CC(C)NC(=O)c1csc(-c2c(-c3ccc(F)cc3)n[nH]c2C2CCN(C(=O)c3c(Cl)cc(Cl)cc3Cl)CC2)n1 [Example 1020]	> 1000

Compound	IC50 [nM]
Cc1ccnc(NCc2nc(-c3ccc(F)cc3)c(-c3nc(C(=O)NC(C)C)cs3)o2)c1 [Example 1313]	> 1000
COc1ccc2cc(C(C)C(=O)N3CCC(c4[nH]nc(-c5ccc(F)cc5)c4-c4nc(C(=O)NC(C)C)cs4)CC3)ccc2c1 (stereo not drawn) [Example 1027]	> 1000
C[C@H](NC(=O)c1csc(-c2c(-c3ccc(F)cc3)n[nH]c2C2CCNCC2)n1)c1ccccc1 [Example 2074]	> 1000
CCN(CCCCO)C(=O)c1csc(-c2sc(C)nc2-c2ccc(F)cc2)n1 [Example 1865]	> 1000
CC(C)NC(=O)c1csc(-c2c(-c3ccc(F)cc3)n[nH]c2C2CCN(C(=O)c3cccnc3Cl)CC2)n1 [Example 867]	≤ 1000
CC(C)NC(=O)c1csc(-c2oc(CNC3CCCc4ccccc43)nc2-c2ccc(F)cc2)n1 (stereo not drawn) [Example 1139]	> 1000
COc1cccc(C(=O)N2CCC(c3[nH]nc(-c4ccc(F)cc4)c3-c3nc(C(=O)NC(C)C)cs3)CC2)c1OC [Example 942]	> 1000
C=CCN(Cc1onc(-c2ccc(F)cc2)c1-c1nc(C(=O)NC(C)C)cs1)C1CCCCC1 [Example 1556]	> 1000
CC(C)NC(=O)c1csc(-c2c(-c3ccc(F)cc3)noc2CNC2CC(C)(C)NC(C)(C)C2)n1 [Example 1481]	> 1000
CC(C)NC(=O)c1csc(-c2c(-c3ccc(F)cc3)n[nH]c2C2CCN(C(=O)c3cc(Br)ccc3Cl)CC2)n1 [Example 1034]	> 1000
CCC(C)CNCc1nc(-c2ccc(F)cc2)c(-c2nc(C(=O)NC(C)C)cs2)o1 (stereo not drawn) [Example 1068]	> 1000
CC(C)NC(=O)c1csc(-c2c(-c3ccc(F)cc3)noc2CNC2CCCCCC2)n1 [Example 1422]	> 1000
CC(C)NC(=O)c1csc(-c2oc(CN3CCCCC3CO)nc2-c2ccc(F)cc2)n1 (stereo not drawn) [Example 1214]	> 1000
COc1ccc(N2CCN(Cc3onc(-c4ccc(F)cc4)c3-c3nc(C(=O)NC(C)C)cs3)CC2)cc1 [Example 1595]	> 1000
CC(C)NC(=O)c1csc(-c2c(-c3ccc(F)cc3)n[nH]c2C2CCN(C(=O)c3cc([N+](=O)[O-])ccc3F)CC2)n1 [Example 949]	> 1000
CC(C)NC(=O)c1csc(-c2c(-c3ccc(F)cc3)n[nH]c2C2CCN(C(=O)C(C)c3ccc(O)cc3)CC2)n1 (stereo not drawn) [Example 897]	> 1000
CCN(Cc1onc(-c2ccc(F)cc2)c1-c1nc(C(=O)NC(C)C)cs1)C(Cc1ccccc1)c1ccco1 (stereo not drawn) [Example 1617]	≤ 1000
CC(C)NC(=O)c1csc(-c2c(-c3ccc(F)cc3)n[nH]c2C2CCN(C(=O)c3ccc4c(c3)OCO4)CC2)n1 [Example 891]	> 1000
CC(=O)c1ccc(N2CCN(C(=O)c3csc(-c4sc(C)nc4-c4ccc(F)cc4)n3)CC2)cc1 [Example 1931]	> 1000
